Reference: US8962627B2, “Oxime derivatives and their use as allosteric modulators of metabotropic glutamate receptors” (Prestwick Chemical, Inc., priority 2009, dated 2015)
Counter-ions that a name gives are not always drawn.

test system: not given; assay: not given; conditions: not given

Row | SMILES | melting point
1 | Cl.ON=c1cc(-c2cc3cccn3cn2)oc2ccc(OCCNC3CCCC3)cc12 | > 230 °C (dec.)
2 | Cl.NCCOc1ccc2oc(-c3cc4cccn4cn3)cc(=NO)c2c1 | > 270 °C (dec.)
3 | Cl.ON=c1cc(-c2cc3sccc3cn2)oc2ccc(OCCN3CCCOCC3)cc12 | 223 to 226 °C
4 | ON=c1cc(-c2cc3cccn3cn2)oc2ccc(OCCc3ccc(F)cc3)cc12 (as salt: hydrochloride) [Example 109, 6-[2-(4-fluoro-phenyl)-ethoxy]-2-pyrrolo[1,2-c]pyrimidin-3-yl-chromen-4-one oxime, hydrochloride] | 234 to 236 °C
5 | ON=c1cc(-c2cc3sccc3cn2)oc2ccc(OCCc3ccc(F)cc3)cc12 (as salt: hydrochloride) [Example 130, 6-[2-(4-Fluoro-phenyl)-ethoxy]-2-thieno[3,2-c]pyridin-6-yl-chromen-4-one oxime] | 228 to 234 °C
6 | ON=c1cc(-c2cc3cccn3cn2)oc2ccc(OCCn3ccnc3)cc12 (as salt: sodium) [Example 105, 6-(2-imidazol-1-O-ethoxy)-2-pyrrolo[1,2-c]pyrimidin-3-yl-chromen-4-one oxime] | > 250 °C (dec.)
7 | Cc1cc2c(=NO)cc(-c3cc4ccccc4cn3)oc2cc1Br [Example 3, 7-bromo-2-isoquinolin-3-yl-6-methyl-chromen-4-one oxime] | 267 to 270 °C
8 | ON=c1cc(-c2cc3ccccc3cn2)oc2c(F)cc(F)cc12 [Example 7, 6,8-difluoro-2-isoquinolin-3-yl-chromen-4-one oxime] | 253 to 256 °C
9 | ON=c1cc(-c2cc3ccccc3cn2)oc2c(Cl)cccc12 [Example 8, 8-chloro-2-isoquinolin-3-yl-chromen-4-one oxime] | 270 to 272 °C
10 | ON=c1cc(-c2cc3ccccc3cn2)oc2cccc(F)c12 [Example 9] | 275 to 278 °C
11 | ON=c1cc(-c2cc3ccc(F)cc3cn2)oc2ccccc12 [Example 12, 2-(7-fluoro-isoquinolin-3-yl)-chromen-4-one oxime] | 233 to 235 °C
12 | COc1cc2cnc(-c3cc(=NO)c4ccccc4o3)cc2cc1OC [Example 14, 2-(6,7-dimethoxy-isoquinolin-3-yl)-chromen-4-one oxime] | 266 to 269 °C
13 | ON=c1cc(-c2cc3ccc(Cl)cc3cn2)oc2ccccc12 [Example 16, 2-(7-chloro-isoquinolin-3-yl)-chromen-4-one oxime] | 260 to 261 °C
14 | ON=c1cc(-c2cc3c(Br)cccc3cn2)oc2ccccc12 [Example 17, 2-(5-bromo-isoquinolin-3-yl)-chromen-4-one oxime] | 268 to 270 °C
15 | Cc1cc2c(=NO)cc(-c3cc4ccccc4cn3)oc2cc1C#Cc1ccccc1 [Example 25] | 248 to 250 °C
16 | CN(C)c1ccc(C#Cc2ccc3c(=NO)cc(-c4cc5ccccc5cn4)oc3c2)cc1 [Example 27, 7-(4-dimethylaminophenyl)ethynyl-2-isoquinolin-3-yl-chromen-4-one oxime] | 235 to 240 °C
17 | Nc1cccc(C#Cc2ccc3c(=NO)cc(-c4cc5ccccc5cn4)oc3c2)c1 [Example 29, 7-(3-aminophenyl)ethynyl-2-isoquinolin-3-yl-chromen-4-one oxime] | 272 to 275 °C
18 | N#Cc1ccc2oc(-c3cc4ccccc4cn3)cc(=NO)c2c1 [Example 38, 6-cyano-2-isoquinolin-3-yl-chromen-4-one oxime] | 280 °C (dec.)
19 | CN1CCN(CCOc2ccc3oc(-c4cc5ccccc5cn4)cc(=NO)c3c2)CC1 [Example 46, 2-isoquinolin-3-yl-6-[2-(4-methyl-piperazin-1-yl)-ethoxy]-chromen-4-one oxime] | 233 to 236 °C
20 | ON=c1cc(-c2cc3ccccc3cn2)oc2cc(-c3ccccc3)ccc12 [Example 47, 2-isoquinolin-3-yl-7-phenyl-chromen-4-one oxime] | 275 to 278 °C
21 | ON=c1cc(-c2cc3ccccc3cn2)oc2cc(-c3ccc(-c4ccccc4)cc3)ccc12 [Example 48, 7-(4-biphenyl)-2-isoquinolin-3-yl-chromen-4-one oxime] | 283 to 285 °C
22 | Cc1cc(C)n2cnc(-c3cc(=NO)c4ccccc4o3)cc12 [Example 64, 2-(5,7-dimethyl-Pyrrolo[1,2-c]pyrimidin-3-yl)-chromen-4-one oxime] | > 250 °C (dec.)
23 | ON=c1cc(-c2cc3c(cn2)ncn3Cc2ccccc2)oc2ccccc12 [Example 68, 2-(1-Benzyl-1H-imidazo[4,5-c]pyridin-6-yl)-chromen-4-one oxime] | 148 to 150 °C
24 | O=c1[nH]c(-c2c/c(=N\O)c3ccccc3o2)cc2ccccc12 [Example 72, 3-{4-[(E)-Hydroxyimino]-4H-chromen-2-yl}-2H-isoquinolin-1-one] | 310 to 315 °C (dec.)
25 | CCN1CCN(CCOc2ccc3oc(-c4cc5cccn5cn4)cc(=NO)c3c2)CC1.Cl.Cl [Example 121] | > 240 °C (dec.)

The next lines start with the values.

Row | melting point | SMILES
26 | 234 to 237 °C | Cl.ON=c1cc(-c2cc3sccc3cn2)oc2ccc(OCCN3CCc4ccccc4C3)cc12
27 | 195 to 197 °C | Cl.O=S1(=O)CCN(CCOc2ccc3oc(-c4cc5sccc5cn4)cc(=NO)c3c2)CC1
28 | > 270 °C (dec.) | CN(C)CCCOc1ccc2oc(-c3cc4cccn4cn3)cc(=NO)c2c1.Cl
29 | > 275 °C (dec.) | CN(C)CCOc1ccc2oc(-c3cc4cccn4cn3)cc(=NO)c2c1.Cl
30 | 239 to 241 °C | COc1ccc2cc(-c3cc(=NO)c4ccccc4o3)ncc2c1 [Example 13, 2-(7-methoxy-isoquinolin-3-yl)-chromen-4-one oxime]
31 | 245 to 247 °C | COc1cccc2cnc(-c3cc(=NO)c4ccccc4o3)cc12 [Example 19, 2-(5-methoxy-isoquinolin-3-yl)-chromen-4-one oxime]
32 | 292 to 297 °C | ON=c1cc(-c2cc3ccccc3cn2)oc2cc(C#Cc3ccccc3Cl)ccc12 [Example 32, 7-(2-chlorophenyl)ethynyl-2-isoquinolin-3-yl-chromen-4-one oxime]
33 | 208 to 211 °C | CN1CCN(CCCNc2ccc3oc(-c4cc5ccccc5cn4)cc(=NO)c3c2)CC1 [Example 45, 2-isoquinolin-3-yl-6-[3-(4-methyl-piperazin-1-yl)-propylamino]-chromen-4-one oxime]
34 | 228 to 233 °C | CN1CCN(CCCNc2ccc3c(=NO)cc(-c4cc5ccccc5cn4)oc3c2)CC1 [Example 49, 2-isoquinolin-3-yl-7-[3-(4-methyl-piperazin-1-yl)-propylamino]-chromen-4-one oxime]
35 | 248 to 250 °C | ON=c1cc(-c2cc3ccc(O)cc3cn2)oc2ccccc12 [Example 60, 2-(7-hydroxy-isoquinolin-3-yl)-chromen-4-one oxime]
36 | 270 to 275 °C (dec.) | ON=c1cc(-c2cc3cc[nH]c3cn2)oc2ccccc12 [Example 75, 2-(1H-Pyrrolo[2,3-c]pyridin-5-yl)-chromen-4-one oxime]
37 | 239 to 241 °C | ON=c1cc(-c2ncc3ccccc3n2)oc2ccccc12 [Example 110, 2-quinazolin-2-yl-chromen-4-one oxime]

biological target: T1, human mGluR4 transiently over-expressed in HEK-293 cells (Homo sapiens, UniProt Q14833); assay: Human mGluR4 positive allosteric modulator evaluation using Ca++ functional assay; format: cell-based; conditions: HEK-293 cells co-transfected with hmGluR4 and chimeric G protein; EC10 glutamate; intracellular calcium (Fluo4AM); read-out: mean EC50 of agonist/positive allosteric modulator activity on mGluR4
T1 construct: expressed in transfected cells; host or cells: HEK-293 cells, transient co-transfection by electroporation
Protocol: Human mGluR4 Positive Allosteric Modulator Evaluation Using Ca^++ Functional Assay
Compounds of the present invention were tested successively for their agonist and positive allosteric modulator activities on human mGluR4 transiently over-expressed in HEK-293 cells. They exert agonist activity if, by themselves in absence of the endogenous glutamate, they are able to activate mGluR4; and they exert positive allosteric modulator activity if they increase the action of the endogenous glutamate.
Cell Culture and Transfection
HEK-293 cells were maintained in Modified Eagle's Medium supplemented with 10% Foetal Calf Serum, 1% Penicillin/Streptomycin and 1% non essential amino acids at 37° C./5% CO2.
Cells were co-transfected by electroporation with two DNA plasmids encoding hmGluR4 and a chimeric G protein allowing redirection of the activation signal to intracellular calcium pathway. Cells were plated after transfection onto polyornithine coated, clear bottom, black-walled, 96-well plates and cultured for 24 h.
Calcium Assay EC50 Determination
Receptor activity was detected by changes in intracellular calcium measured using the fluorescent Ca^2+ sensitive dye, Fluo4AM (Molecular Probes).
The day of the assay, medium was aspirated and replaced during 3 hours by medium without serum supplemented with 1% Glutamax, 1% Penicillin/Streptomycin and 1% non essential amino acids. Then, cells were washed with freshly prepared buffer B (HBSS 1×(PAA), Hepes 20 mM, MgSO4-7H2O 1 mM, Na2CO3 3.3 mM, CaCl2-2H2O 1.3 mM, 0.5% BSA, Probenecid 2.5 mM) and loaded at 37° C. in 5% CO2 for 1.5 hours with buffer B containing 1 μM Fluo4AM 0.1 mg/mL Pluronic Acid, 7 μg/mL Glutamate Pyruvate Transaminase and 2 mM sodium pyruvate. Afterwards cells were washed twice with buffer B and 50 μL of this buffer were added to each well. Addition of compounds and intracellular Ca^2+ measurements (excitation 485 nm, emission 525 nm) were performed by the fluorescence microplate reader FlexStation (Molecular Devices).
Agonist and positive allosteric modulator activities of compounds were consecutively evaluated on the same cells plate. Agonist activity was first tested during 60 s with the addition of compound alone on the cells. Then, the cells were stimulated by an EC10 glutamate concentration and fluorescence recorded for additional 60 s. EC10 glutamate concentration is the concentration giving 10% of the maximal glutamate response. Agonist and/or positive allosteric modulator activity(ies) were evaluated in comparison to basal signal evoked by EC10 glutamate alone.
For EC50 determination, a dose-response test was performed using 6 to 9 concentrations of each compound of the invention. Dose-response curves were fitted using the sigmoidal dose-response (variable slope) analysis in GraphPad Prism program (Graph Pad Inc) and EC50 of agonist/positive allosteric modulator activity was calculated. Dose-response experiments were all performed in duplicate, two times independently.

T1 sequence (Q14833 33-912): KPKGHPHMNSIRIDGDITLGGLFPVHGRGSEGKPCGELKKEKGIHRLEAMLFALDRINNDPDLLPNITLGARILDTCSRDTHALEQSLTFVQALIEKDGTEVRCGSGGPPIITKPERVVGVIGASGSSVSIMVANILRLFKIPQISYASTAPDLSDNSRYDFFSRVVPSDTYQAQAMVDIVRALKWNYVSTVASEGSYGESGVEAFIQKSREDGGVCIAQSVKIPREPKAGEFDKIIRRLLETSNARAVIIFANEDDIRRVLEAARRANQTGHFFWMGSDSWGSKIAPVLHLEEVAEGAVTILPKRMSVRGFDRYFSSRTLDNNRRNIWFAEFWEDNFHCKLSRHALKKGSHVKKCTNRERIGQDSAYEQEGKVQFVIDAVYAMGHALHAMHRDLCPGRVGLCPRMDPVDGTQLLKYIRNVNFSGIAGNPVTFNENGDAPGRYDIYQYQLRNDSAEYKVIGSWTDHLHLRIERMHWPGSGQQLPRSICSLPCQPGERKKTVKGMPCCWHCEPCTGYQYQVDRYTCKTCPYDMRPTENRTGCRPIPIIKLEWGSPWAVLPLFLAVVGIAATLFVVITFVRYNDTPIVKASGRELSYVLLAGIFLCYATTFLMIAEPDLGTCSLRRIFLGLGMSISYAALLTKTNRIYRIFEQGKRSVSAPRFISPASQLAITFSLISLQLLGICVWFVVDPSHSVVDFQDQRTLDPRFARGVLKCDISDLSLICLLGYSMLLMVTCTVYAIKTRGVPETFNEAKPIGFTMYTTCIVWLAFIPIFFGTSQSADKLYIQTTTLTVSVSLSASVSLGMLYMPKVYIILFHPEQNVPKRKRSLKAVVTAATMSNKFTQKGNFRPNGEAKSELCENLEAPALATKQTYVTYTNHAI

Row | EC50 [nM] | SMILES
38 | < 1000 | ON=c1cc(-c2cc3ccccc3cn2)oc2cc(C#Cc3ccccc3)ccc12 (mixture of isomers) [Example 20, 2-isoquinolin-3-yl-7-phenylethynyl-chromen-4-one oxime]
39 | < 5000 | ON=c1cc(-c2cc3ccccc3cn2)oc2cc(CCc3ccccc3)ccc12 (mixture of isomers) [Example 22, 2-isoquinolin-3-yl-7-phenethyl-chromen-4-one oxime]
40 | < 1000 | C#Cc1ccc2c(=NO)cc(-c3cc4ccccc4cn3)oc2c1 (mixture of isomers) [Example 23, 7-ethynyl-2-isoquinolin-3-yl-chromen-4-one oxime]
41 | < 5000 | COc1ccc(C#Cc2ccc3c(=NO)cc(-c4cc5ccccc5cn4)oc3c2)cc1 (mixture of isomers) [Example 31, 2-isoquinolin-3-yl-7-(4-methoxyphenyl)ethynyl-chromen-4-one oxime]
